Legend:
[1] = Water solubility; assay type: physicochemical
[2] = biological target: T1, ERO1α (Homo sapiens, UniProt Q96HE7); assay: Bio-layer interferometry, B12-5 on biotinylated ERO1α biosensor; settings: read-out: KD, binding to ERO1α
T1 sequence (Q96HE7 24-468): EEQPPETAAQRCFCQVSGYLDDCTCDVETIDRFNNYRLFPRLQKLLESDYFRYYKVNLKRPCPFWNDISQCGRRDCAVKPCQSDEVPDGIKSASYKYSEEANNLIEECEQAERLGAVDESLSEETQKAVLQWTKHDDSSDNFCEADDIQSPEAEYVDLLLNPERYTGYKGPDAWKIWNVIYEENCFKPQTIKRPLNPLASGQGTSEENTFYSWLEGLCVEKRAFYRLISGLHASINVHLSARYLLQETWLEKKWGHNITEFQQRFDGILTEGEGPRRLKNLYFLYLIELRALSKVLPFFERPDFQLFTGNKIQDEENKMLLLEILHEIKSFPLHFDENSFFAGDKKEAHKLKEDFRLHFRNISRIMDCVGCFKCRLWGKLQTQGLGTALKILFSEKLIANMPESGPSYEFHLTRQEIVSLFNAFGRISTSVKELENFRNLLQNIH
From the text: FIG. 18(A-R) is an exemplary embodiment of novel small-molecule inhibitors recapitulating the defect in Ero1α (endoplasmic reticulum oxidoreductase 1a)-null platelets in accordance with the present disclosure. FIG. 18A: The structure of B12 and its inhibitory effect on ERO1α activity. FIG. 18(B-E): The inhibitory effect of B12 on P-selectin exposure and αIIbβ3 integrin activation in (FIG. 18B and FIG. 18C) mouse and (FIG. 18D and FIG. 18E) human platelets. FIG. 18F: The structure of B12-5 and its inhibitory effect on ERO1α activity. FIG. 18G: A docking model of B12-5-ERO1α (3AHQ) and flavin adenine dinucleotide (FAD)-ERO1α complex. There are pi-sulfur interactions of the phenothiazine head group (B112-5) or a tricyclic ring (FAD) with Met389 and Cys397. Also, there are H bond interactions between the tail/alkyl group and His255, Asn259, and Arg287. […] After incubation with a different concentration of B12-5, the specific interaction between B12-5 and ERO1α was measured by subtracting the nonspecific binding. The KD value was calculated from the Kon and Koff values. […] P values determined by ANOVA and Dunnett test (FIG. 18(B-E), FIG. 18(1-L), and FIG. 18(O-R) [for B12-5]) or Student t test (FIG. 18M, FIG. 18N, and FIG. 18(O-R) [for BAPTA (1,2-bis(o-aminophenoxy)ethane-N,N,N′,N′-tetraacetic acid)]). […]

[3] = tested on: human platelets; assay: Platelet aggregation, human platelets; assay type: cell-based; settings: 3 to 10 μM
Experimental: FIG. 9(A-C) is an exemplary embodiment of EN460 inhibiting thrombin-induced aggregation of mouse and human platelets in accordance with the present disclosure. (A) Human (FIG. 9A), WT (FIG. 9B), and Ero1α-null (FIG. 9C) platelets were pretreated with EN460, an ERO1α inhibitor, at 1, 3, or 10 μM, and treated with 0.025 U/ml thrombin to induce platelet aggregation. The data represent the mean±SD (n=3). P values determined by ANOVA and Dunnett's test (FIG. 9(A-B)) or Student's t-test (FIG. 9C).
FIG. 10(A-E) is an exemplary embodiment of 15E9 not affecting platelet activation and aggregation in accordance with the present disclosure. Mouse platelets were treated with 0.02-0.03 (FIG. 10A P-selectin, FIG. 10B aIIbβ3) or 0.025 U/ml thrombin (FIG. 10C) in the presence of 10 μg/ml mouse IgG2a (IgG2a) or a blocking anti-ERO1α antibody (15E9). Flow cytometry (FIG. 10(A-B)) and aggregation (FIG. 10C) assays were performed. FIG. 10D: Human platelets were treated with 0.025 U/ml thrombin in the presence of mouse IgG2a (mIgG2a) or 10 μg/ml 15E9 and 16B6, followed by measuring aggregation. FIG. 10E: WT and Ero1α null platelets were treated with 10 μg/ml mouse IgG1 (mIgG1) or a blocking anti-PDI antibody (BD34), followed by measuring aggregation induced by 0.025 U/ml thrombin. The data represent the mean±SD (n=3). P values determined by unpaired Student's t-test (vs. mIgG1).

[4] = tested on: platelets; settings: 10 to 33 μM, recent study; cited from earlier work
[5] = from studies; cited from earlier work

Row | Structure (SMILES) | water solubility [1] | Kd [2] [µM] | thrombin-induced aggregation [3] | thrombin-induced platelet aggregation [4] | thiol-reacting activity [5]
1 | O=C(CSc1nc(O)cc(O)n1)N1c2ccccc2Sc2ccccc21 [B12-5] | poor | 12.9 ± 3.8 | – | – | –
2 | O=C(O)c1cc(N2N=C(C(F)(F)F)/C(=C/c3ccc(-c4ccccc4)o3)C2=O)ccc1Cl [EN460] | – | – | abrogated | significantly blocks | has thiol-reacting activity

Source: patent US20240366624A1, “METHODS AND COMPOSITIONS FOR TREATING THROMBOTIC DISEASE” (Washington University, priority 2023, published 2024)
